From patent publication US10550100B2, “5-[3-[piperzin-1-yl]-3-oxo-propyl]-imidazolidine-2,4-dione derivatives as ADAMTS 4 and 5 inhibitors for treating E.G. osteoarthritis” (GALAPAGOS NV, priority 2016, dated 2020)

Legend:
Assay type in all cases: biochemical
human MMP13 = human MMP13 (Homo sapiens (Human), UniProt P45452); assay: hMMP13 390 MMP FRET Substrate I cleavage assay, Protocol 1; details: Protocol 1, 390 MMP FRET Substrate I; read-out: hMMP-13 potency IC50
Summary of the method: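 Human MMP13 was preactivated with 1 mM p-aminophenylmercuric acetate for 1 h at 37° C. Cleavage of 390 MMP FRET Substrate I (2.5 μM as added) ran 45 min at room temperature, with fluorescence read at 485 nm excitation and 530 nm emission.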

human ADAMTS-5 = human ADAMTS-5 (Homo sapiens (Human), UniProt Q9UNA0); assay: hADAMTS-5 TBIS-1 cleavage assay, Protocol 2; details: Protocol 2, TBIS-1 substrate, 45 min at 37° C.; read-out: hADAMTS-5 potency IC50
Chain of human ADAMTS-5 (Q9UNA0 262-930): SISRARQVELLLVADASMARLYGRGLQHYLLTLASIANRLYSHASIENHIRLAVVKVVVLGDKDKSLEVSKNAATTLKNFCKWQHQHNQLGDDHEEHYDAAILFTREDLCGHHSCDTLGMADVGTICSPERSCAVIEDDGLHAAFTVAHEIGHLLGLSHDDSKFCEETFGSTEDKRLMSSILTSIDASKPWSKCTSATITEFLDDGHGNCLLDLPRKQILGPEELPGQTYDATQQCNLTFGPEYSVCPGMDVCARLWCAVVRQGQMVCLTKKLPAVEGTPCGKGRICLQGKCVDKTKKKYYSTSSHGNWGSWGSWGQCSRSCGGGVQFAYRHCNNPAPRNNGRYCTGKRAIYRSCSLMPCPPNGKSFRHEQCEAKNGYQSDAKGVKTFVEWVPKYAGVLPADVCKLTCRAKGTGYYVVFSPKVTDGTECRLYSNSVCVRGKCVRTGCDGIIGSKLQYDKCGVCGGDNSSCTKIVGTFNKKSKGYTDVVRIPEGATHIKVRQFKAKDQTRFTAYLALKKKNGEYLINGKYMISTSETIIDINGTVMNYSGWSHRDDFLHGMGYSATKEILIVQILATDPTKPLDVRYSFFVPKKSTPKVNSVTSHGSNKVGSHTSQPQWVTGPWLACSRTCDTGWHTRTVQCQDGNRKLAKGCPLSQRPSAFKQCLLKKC
Experimental: The basis for the assay is the cleavage of the substrate TBIS-1 (5 FAM-[…] (5TAMRA)K-NH2) (SEQ ID NO: 2) by human ADAMTS-5.
(§1) The reaction is initiated by adding to the assay plate TBIS-1 (10 μL, 4.5 μM, Anaspec) in the same buffer.
Finally, the fluorescence is read on the Envision (Perkin Elmer) after an incubation of 45 min at 37° C. (Excitation 485 nm, emission 530).

human TACE = human TACE (Homo sapiens (Human), UniProt P78536); assay: hTACE 5FAM-[…]-5TAMRA cleavage assay; details: 5FAM-LAQAVRSSSRK-5TAMRA, 75 min at room temperature; read-out: hTACE potency IC50
Chain of human TACE (P78536 215-671): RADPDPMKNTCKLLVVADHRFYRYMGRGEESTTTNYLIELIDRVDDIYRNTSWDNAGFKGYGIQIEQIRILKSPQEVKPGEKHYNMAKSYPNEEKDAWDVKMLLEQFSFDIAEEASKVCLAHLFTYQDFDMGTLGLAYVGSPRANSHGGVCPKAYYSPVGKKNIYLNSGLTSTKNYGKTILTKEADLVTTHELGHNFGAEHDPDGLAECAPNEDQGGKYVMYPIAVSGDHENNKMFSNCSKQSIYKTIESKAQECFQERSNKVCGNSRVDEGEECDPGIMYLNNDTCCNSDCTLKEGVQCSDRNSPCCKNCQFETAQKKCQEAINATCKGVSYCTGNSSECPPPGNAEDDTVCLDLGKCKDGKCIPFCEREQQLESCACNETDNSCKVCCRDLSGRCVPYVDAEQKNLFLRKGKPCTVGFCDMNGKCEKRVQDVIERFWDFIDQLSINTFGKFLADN
Experimental: Finally, the fluorescence is read on the Envision (Perkin Elmer) after an incubation of 75 min at room temperature (Excitation 485 nm, Emission 530).

human ADAMTS6 = human ADAMTS6 (Homo sapiens (Human), UniProt Q9UKP5); assay: hADAMTS-6 520 MMP FRET substrate XII cleavage assay; details: 37° C. for 2 h, read-out: hADAMTS-6 potency IC50
Chain of human ADAMTS6 (Q9UKP5 other isoform, or with tags, fused parts or gaps): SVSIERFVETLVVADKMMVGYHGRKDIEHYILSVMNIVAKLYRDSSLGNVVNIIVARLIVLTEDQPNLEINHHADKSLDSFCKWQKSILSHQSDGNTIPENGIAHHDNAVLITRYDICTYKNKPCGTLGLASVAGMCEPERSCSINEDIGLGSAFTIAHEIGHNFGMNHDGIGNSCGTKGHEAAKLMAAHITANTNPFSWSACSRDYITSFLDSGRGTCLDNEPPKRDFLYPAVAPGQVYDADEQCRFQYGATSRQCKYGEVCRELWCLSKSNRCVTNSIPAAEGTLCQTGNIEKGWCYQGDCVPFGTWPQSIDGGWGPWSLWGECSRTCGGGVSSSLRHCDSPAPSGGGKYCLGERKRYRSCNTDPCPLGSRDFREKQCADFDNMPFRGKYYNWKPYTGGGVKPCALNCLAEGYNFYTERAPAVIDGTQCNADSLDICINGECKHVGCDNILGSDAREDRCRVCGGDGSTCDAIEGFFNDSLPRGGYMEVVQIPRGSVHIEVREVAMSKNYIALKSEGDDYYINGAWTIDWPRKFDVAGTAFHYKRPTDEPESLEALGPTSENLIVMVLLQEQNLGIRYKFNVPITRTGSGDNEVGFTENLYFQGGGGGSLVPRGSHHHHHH
Summary of the method: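 FRET cleavage of 520 MMP Substrate XII (Arg-Pro-Lys-Pro-Tyr-Ala-Nva-Trp-Met-Lys) by 0.73 nM enzyme in 25 mM Tris pH8.0, 0.05% CHAPS, 2.5 mM CaCl2. Compound dilution series from 20 μM top, 1/5 steps; substrate added from 1 μM stock, 2 h at 37° C. Fluorescence read at exc485/em530 for IC50.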

rnADAMTS-5 (1-564-6H) = rnADAMTS-5 (1-564-6H) (Rattus norvegicus (Rat), UniProt Q6TY19); assay: Rat ADAMTS-5 TBIS-1 substrate cleavage assay; details: rnADAMTS-5, TBIS-1 substrate, 120 min at 37° C.; read-out: Rat ADAMTS-5 potency IC50
Chain of rnADAMTS-5 (1-564-6H) (Q6TY19 entry or part of it): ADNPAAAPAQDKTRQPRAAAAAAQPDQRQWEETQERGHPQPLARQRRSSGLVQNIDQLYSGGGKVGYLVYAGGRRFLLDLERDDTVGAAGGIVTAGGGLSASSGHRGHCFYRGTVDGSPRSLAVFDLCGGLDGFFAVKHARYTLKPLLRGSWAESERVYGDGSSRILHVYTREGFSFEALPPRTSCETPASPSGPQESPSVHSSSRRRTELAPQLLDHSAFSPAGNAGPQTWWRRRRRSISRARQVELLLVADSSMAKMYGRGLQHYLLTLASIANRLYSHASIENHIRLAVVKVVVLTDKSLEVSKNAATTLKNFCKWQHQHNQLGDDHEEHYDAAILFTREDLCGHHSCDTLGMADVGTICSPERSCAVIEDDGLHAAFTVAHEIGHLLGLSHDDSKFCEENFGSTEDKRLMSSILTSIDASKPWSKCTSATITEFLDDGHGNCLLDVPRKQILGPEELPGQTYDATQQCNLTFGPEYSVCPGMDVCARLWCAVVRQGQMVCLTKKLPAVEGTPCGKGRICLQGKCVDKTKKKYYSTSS
Experimental: The basis for the assay is the cleavage of the substrate TBIS-1 (5 FAM-[…] (5TAMRA)K-NH2) (SEQ ID NO: 2) by rnADAMTS-5 (1-564-6H).
as §1
Finally, the fluorescence is read on the Envision (Perkin Elmer) after an incubation of 120 min at 37° C. (Excitation 485 nm, emission 535).

Compound: CC1(CCC(=O)N2CCC(c3cccc(Cl)c3)CC2)NC(=O)NC1=O (stereo not drawn) [Cpd 11, 5-(3-(4-(3-chlorophenyl)piperidin-1-yl)-3-oxopropyl)-5-methyl-imidazolidine-2,4-dione]
- IC50 (human MMP13): > 100 nM
- IC50 (human ADAMTS-5): > 100 nM
- IC50 (human TACE): > 100 nM
- IC50 (human ADAMTS6): 50 to 100 nM

Compound: CC1(CCC(=O)N2CCC(c3ccc(F)cc3)CC2)NC(=O)NC1=O (stereo not drawn) [Cpd 10, 5-(3-(4-(4-fluorophenyl)piperidin-1-yl)-3-oxopropyl)-5-methyl-imidazolidine-2,4-dione]
- IC50 (human MMP13): > 100 nM
- IC50 (human ADAMTS-5): > 100 nM
- IC50 (human TACE): > 100 nM
- IC50 (human ADAMTS6): > 100 nM

Compound: O=C1NC(=O)C(CCC(=O)N2CCC(c3ccccc3)CC2)N1 (stereo not drawn) [Cpd 2, 5-[3-oxo-3-(4-phenyl-1-piperidyl)propyl] imidazolidine-2,4-dione]
- IC50 (human ADAMTS-5): > 100 nM
- IC50 (human TACE): > 100 nM
- IC50 (human ADAMTS6): > 100 nM

Compound: O=C1NC(=O)C(CCC(=O)N2CCC(c3ccccc3)CC2)(C2CC2)N1 (stereo not drawn) [Cpd 7, 5-cyclopropyl-5-(3-oxo-3-(4-phenylpiperidin-1-yl)propyl) imidazolidine-2,4-dione]
- IC50 (human MMP13): > 100 nM
- IC50 (human ADAMTS-5): 50 to 100 nM
- IC50 (rnADAMTS-5 (1-564-6H)): 50 to 100 nM
- IC50 (human TACE): > 100 nM
- IC50 (human ADAMTS6): > 100 nM

Compound: CC(C)C1(CCC(=O)N2CCC(c3ccccc3)CC2)NC(=O)NC1=O (stereo not drawn) [Cpd 5, 5-isopropyl-5-(3-oxo-3-(4-phenylpiperidin-1-yl)propyl) imidazolidine-2,4-dione]
- IC50 (human ADAMTS-5): 50 to 100 nM
- IC50 (human TACE): > 100 nM
- IC50 (human ADAMTS6): > 100 nM

Compound: O=C1NC(=O)C(CCC(=O)N2CCC(c3ccccc3)CC2)(c2cccnc2)N1 (stereo not drawn) [Cpd 16, 5-(3-oxo-3-(4-phenyl-piperidin-1-yl)propyl)-5-(pyridin-3-yl)imidazolidine-2,4-dione]
- IC50 (human MMP13): > 100 nM
- IC50 (human ADAMTS-5): 50 to 100 nM
- IC50 (rnADAMTS-5 (1-564-6H)): 50 to 100 nM
- IC50 (human TACE): > 100 nM
- IC50 (human ADAMTS6): > 100 nM

Compound: CC1(CCC(=O)N2CCC(c3ccccc3)CC2)NC(=O)NC1=O (stereo not drawn) [Cpd 4, 5-methyl-5-(3-oxo-3-(4-phenylpiperidin-1-yl)propyl) imidazolidine-2,4-dione]
- IC50 (human ADAMTS-5): > 100 nM
- IC50 (human TACE): > 100 nM
- IC50 (human ADAMTS6): > 100 nM

Compound: O=C1NC(=O)C(CCC(=O)N2CCC(c3ccccc3)CC2)(c2ccccc2)N1 (stereo not drawn) [Cpd 3, 5-(3-oxo-3-(4-phenylpiperidin-1-yl)propyl)-5-phenyl imidazolidine-2,4-dione]
- IC50 (human ADAMTS-5): 50 to 100 nM
- IC50 (rnADAMTS-5 (1-564-6H)): 50 to 100 nM
- IC50 (human TACE): > 100 nM
- IC50 (human ADAMTS6): > 100 nM

Compound: COc1ccccc1C1CCN(C(=O)CCC2(C)NC(=O)NC2=O)CC1 (stereo not drawn) [Cpd 6, 5-(3-(4-(2-methoxyphenyl)piperidin-1-yl)-3-oxopropyl)-5-methyl-imidazolidine-2,4-dione]
- IC50 (human ADAMTS-5): > 100 nM
- IC50 (human ADAMTS6): > 100 nM

Compound: CC1(CCC(=O)N2CCC(c3ccc(Cl)cc3)CC2)NC(=O)NC1=O (stereo not drawn) [Cpd 12, 5-(3-(4-(4-chlorophenyl)piperidin-1-yl)-3-oxopropyl)-5-methyl-imidazolidine-2,4-dione]
- IC50 (human MMP13): > 100 nM
- IC50 (human ADAMTS-5): > 100 nM
- IC50 (human TACE): > 100 nM
- IC50 (human ADAMTS6): 50 to 100 nM

Compound: CC1(CCC(=O)N2CCC(c3cc(Cl)cc(Cl)c3)CC2)NC(=O)NC1=O (stereo not drawn) [Cpd 9, 5-(3-(4-(3,5-dichlorophenyl)piperidin-1-yl)-3-oxopropyl)-5-methyl-imidazolidine-2,4-dione]
- IC50 (human MMP13): > 100 nM
- IC50 (human ADAMTS-5): 50 to 100 nM
- IC50 (rnADAMTS-5 (1-564-6H)): > 100 nM
- IC50 (human TACE): > 100 nM
- IC50 (human ADAMTS6): 25 to 50 nM
